Measured values reported in the NIST ThermoML archive (doi:10.1016/j.fluid.2016.01.044).
Numbers after ± are expanded uncertainties.

Assays:
[1] = Crystal; DTA
[2] = Molar enthalpy of transition or fusion; settings: Crystal; DSC

| SMILES | Normal melting temperature [1] | Molar enthalpy of transition or fusion [2] |
| --- | --- | --- |
| CCCCCCCCCC [decane] | -28.52 ± 0.5 °C | 6.89 ± 0.196 kcal/mol |
| CCCCCCCCCCCC(=O)OCC [ethyl dodecanoate] | -0.20 ± 0.5 °C | 9.15 ± 0.263 kcal/mol |
| CCCCCCCCCCCCCCCC(=O)OCC [ethyl hexadecanoate] | 24.78 ± 0.5 °C | – |
